# Source: patent US20230143604A1, “QW DOSING OF GIP RECEPTOR AGONIST PEPTIDE COMPOUNDS AND USES THEREOF” (TAKEDA PHARMACEUTICAL COMPANY LIMITED, priority 2020, published 2023)
# Tests used:
# human GLP-1R = target: T1, human GLP-1R (Homo sapiens, UniProt P43220); experiment: Human GLP1R agonist activity, intracellular cAMP accumulation; type: cell-based; conditions: HEK-293T cells overexpressing human GLP-1R, 1 hr, read-out: Human GLP1R cAMP EC50, HEK293T
# T1 construct: HEK-293T cells overexpressing full-length human GLP-1R; FLAG (N); host or cells: HEK-293T
# T1 sequence (P43220 24-463): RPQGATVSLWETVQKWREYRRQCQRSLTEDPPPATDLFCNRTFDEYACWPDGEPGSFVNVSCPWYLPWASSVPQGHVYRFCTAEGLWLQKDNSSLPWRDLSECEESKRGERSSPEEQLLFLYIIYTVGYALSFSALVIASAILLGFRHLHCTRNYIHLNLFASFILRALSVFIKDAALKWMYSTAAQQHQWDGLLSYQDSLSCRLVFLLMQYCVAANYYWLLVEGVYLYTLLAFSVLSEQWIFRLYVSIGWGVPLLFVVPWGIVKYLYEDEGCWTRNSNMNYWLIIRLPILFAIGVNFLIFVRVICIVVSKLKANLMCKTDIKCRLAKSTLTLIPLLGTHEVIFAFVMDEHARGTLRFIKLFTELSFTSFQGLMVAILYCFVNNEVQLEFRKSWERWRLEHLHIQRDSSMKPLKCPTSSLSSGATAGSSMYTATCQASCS
# Method in brief: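 Frozen assay-ready cells washed and resuspended at 4×10^5 cells/mL in Krebs Ringer buffer, then incubated with compound 1 hr at room temperature in the dark. cAMP read by HTRF (anti-cAMP antibody, d2-cAMP tracer). Normalised to 1 nm GLP-1 (100%) and DMSO (0%).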
# C57BL/6J mice = experiment: Oral glucose tolerance test (OGTT); type: in vivo; conditions: 3 nmol/kg s.c., 24 hours before glucose loading
# Method in brief: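 Peptide or vehicle given s.c. at 0.1, 0.3, 3 or 10 nmol/kg (peptide-dependent), 24 h before oral 50% dextrose at 5 ml/kg unless stated otherwise. Blood glucose read at 0, 15, 30 and 60 min. % inhibition = (1−(AUC cpd−AUC naïve)/(AUC veh−AUC naïve))×100.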
# physchem = experiment: physchem
# Method in brief: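 3 mg of peptide treated with 100 μL portions of 200 mM phosphate buffer pH 7.4, sonicating/vortexing up to 1 min, with further buffer added until fully dissolved. Solubility then quantified by HPLC.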
Structure (SMILES),EC50 (human GLP-1R) [nM],Oral Glucose Tolerance Test Percent decrease in blood glucose AUC (%) over 60 mins (C57BL/6J mice),solubility (physchem; pH 7.4) [mg/mL],"solubility (physchem; pH 7.4, aqueous buffer) [mg/mL]"
CC[C@H](C)[C@H](NC(=O)[C@H](CO)NC(=O)[C@H](Cc1ccc(O)cc1)NC(=O)[C@H](CC(=O)O)NC(=O)[C@H](CO)NC(=O)[C@@H](NC(=O)[C@H](Cc1ccccc1)NC(=O)[C@@H](NC(=O)CNC(=O)[C@H](CCC(=O)O)NC(=O)C(C)(C)NC(=O)[C@H](Cc1ccc(O)cc1)NC)[C@@H](C)O)[C@@H](C)CC)C(=O)N[C@@H](C)C(=O)N[C@@H](CCCCNC(=O)CNC(=O)CNC(=O)CNC(=O)CNC(=O)CNC(=O)CCCCCCCCCCCCCCCCC(=O)O)C(=O)N[C@@H](CC(=O)O)C(=O)N[C@@H](CCCNC(=N)N)C(=O)NC(C)(C)C(=O)N[C@@H](C)C(=O)N[C@@H](CCC(N)=O)C(=O)NC(C)(C)C(=O)N[C@@H](CC(=O)O)C(=O)N[C@@H](Cc1ccccc1)C(=O)N[C@H](C(=O)N[C@@H](CC(N)=O)C(=O)N[C@@H](Cc1c[nH]c2ccccc12)C(=O)N[C@@H](CC(C)C)C(=O)N[C@@H](CC(C)C)C(=O)N[C@@H](C)C(=O)N[C@@H](CCC(N)=O)C(=O)N[C@@H](CCCCNC(C)=O)C(=O)NCC(=O)O)C(C)C [Compound 81],33.9,66% (3 nmol/kg),≥ 15,≥ 30
CC[C@H](C)[C@H](NC(=O)[C@H](CO)NC(=O)[C@H](Cc1ccc(O)cc1)NC(=O)[C@H](CC(=O)O)NC(=O)[C@H](CO)NC(=O)[C@@H](NC(=O)[C@H](Cc1ccccc1)NC(=O)[C@@H](NC(=O)CNC(=O)[C@H](CCC(=O)O)NC(=O)C(C)(C)NC(=O)[C@H](Cc1ccc(O)cc1)NC)[C@@H](C)O)[C@@H](C)CC)C(=O)N[C@@H](C)C(=O)N[C@@H](CCCCNC(=O)CNC(=O)CNC(=O)CNC(=O)CNC(=O)CNC(=O)CCCCCCCCCCCCCCCCC(=O)O)C(=O)N[C@@H](CC(=O)O)C(=O)N[C@@H](CCCNC(=N)N)C(=O)NC(C)(C)C(=O)N[C@@H](C)C(=O)N[C@@H](CCC(N)=O)C(=O)NC(C)(C)C(=O)N[C@@H](CC(=O)O)C(=O)N[C@@H](Cc1ccccc1)C(=O)N[C@H](C(=O)N[C@@H](CC(N)=O)C(=O)N[C@@H](Cc1c[nH]c2ccccc12)C(=O)N[C@@H](CC(C)C)C(=O)N[C@@H](CC(C)C)C(=O)N[C@@H](C)C(=O)N[C@@H](CCC(N)=O)C(=O)N[C@@H](CCC(N)=O)C(=O)NCC(=O)O)C(C)C [Compound 82],17.4,72% (3 nmol/kg),≥ 15,≥ 30
CC[C@H](C)[C@H](NC(=O)[C@H](Cc1ccccc1)NC(=O)[C@@H](NC(=O)CNC(=O)[C@H](CCC(=O)O)NC(=O)C(C)(C)NC(=O)[C@H](Cc1ccc(O)cc1)NC)[C@@H](C)O)C(=O)N[C@@H](CO)C(=O)N[C@@H](CC(=O)O)C(=O)N[C@@H](Cc1ccc(O)cc1)C(=O)N[C@@H](CO)C(=O)N[C@H](C(=O)NC(C)(C)C(=O)N[C@@H](CCCCNC(=O)CNC(=O)CNC(=O)CNC(=O)CNC(=O)CNC(=O)CCCCCCCCCCCCCCCCC(=O)O)C(=O)N[C@@H](CC(=O)O)C(=O)N[C@@H](CCCNC(=N)N)C(=O)NC(C)(C)C(=O)N[C@@H](C)C(=O)N[C@@H](CCC(N)=O)C(=O)NC(C)(C)C(=O)N[C@@H](CC(=O)O)C(=O)N[C@@H](Cc1ccccc1)C(=O)N[C@H](C(=O)N[C@@H](CC(N)=O)C(=O)N[C@@H](Cc1c[nH]c2ccccc12)C(=O)N[C@@H](CC(C)C)C(=O)N[C@@H](CC(C)C)C(=O)N[C@@H](C)C(=O)N[C@@H](CCC(N)=O)C(=O)N[C@@H](CO)C(=O)N1CCC[C@H]1C(=O)NCC(=O)O)C(C)C)[C@@H](C)CC [Compound 83],66.1,68% (3 nmol/kg),≥ 15,≥ 30
CC[C@H](C)[C@H](NC(=O)[C@H](Cc1ccccc1)NC(=O)[C@@H](NC(=O)CNC(=O)[C@H](CCC(=O)O)NC(=O)C(C)(C)NC(=O)[C@H](Cc1ccc(O)cc1)NC)[C@@H](C)O)C(=O)N[C@@H](CO)C(=O)N[C@@H](CC(=O)O)C(=O)N[C@@H](Cc1ccc(O)cc1)C(=O)N[C@@H](CO)C(=O)N[C@H](C(=O)NC(C)(C)C(=O)N[C@@H](CC(C)C)C(=O)N[C@@H](CC(=O)O)C(=O)N[C@@H](CCCNC(=N)N)C(=O)N[C@@H](CCCCNC(=O)CNC(=O)CNC(=O)CNC(=O)CNC(=O)CNC(=O)CCCCCCCCCCCCCCCCC(=O)O)C(=O)N[C@@H](C)C(=O)N[C@@H](CCC(N)=O)C(=O)NC(C)(C)C(=O)N[C@@H](CC(=O)O)C(=O)N[C@@H](Cc1ccccc1)C(=O)N[C@H](C(=O)N[C@@H](CC(N)=O)C(=O)N[C@@H](Cc1c[nH]c2ccccc12)C(=O)N[C@@H](CC(C)C)C(=O)N[C@@H](CC(C)C)C(=O)N[C@@H](C)C(=O)N[C@@H](CCC(N)=O)C(=O)N[C@@H](CO)C(=O)N1CCC[C@H]1C(=O)NCC(=O)O)C(C)C)[C@@H](C)CC [Compound 88],13.5,64% (3 nmol/kg),≥ 15,≥ 30
CC[C@H](C)[C@H](NC(=O)[C@H](CO)NC(=O)[C@H](Cc1ccc(O)cc1)NC(=O)[C@H](CC(=O)O)NC(=O)[C@H](CO)NC(=O)[C@@H](NC(=O)[C@H](Cc1ccccc1)NC(=O)[C@@H](NC(=O)CNC(=O)[C@H](CCC(=O)O)NC(=O)C(C)(C)NC(=O)[C@H](Cc1ccc(O)cc1)NC)[C@@H](C)O)[C@@H](C)CC)C(=O)N[C@@H](C)C(=O)N[C@@H](CCCCNC(=O)CNC(=O)CNC(=O)CNC(=O)CNC(=O)CNC(=O)CCCCCCCCCCCCCCCCC(=O)O)C(=O)N[C@@H](CC(=O)O)C(=O)N[C@@H](CCCNC(=N)N)C(=O)NC(C)(C)C(=O)N[C@@H](C)C(=O)N[C@@H](CCC(N)=O)C(=O)NC(C)(C)C(=O)N[C@@H](CC(N)=O)C(=O)N[C@@H](Cc1ccccc1)C(=O)N[C@H](C(=O)N[C@@H](CC(N)=O)C(=O)N[C@@H](Cc1c[nH]c2ccccc12)C(=O)N[C@@H](CC(C)C)C(=O)N[C@@H](CC(C)C)C(=O)N[C@@H](C)C(=O)N[C@@H](CCC(N)=O)C(=O)N[C@@H](CO)C(=O)N1CCC[C@H]1C(=O)NCC(=O)O)C(C)C [Compound 114],11.7,50% (3 nmol/kg),≥ 15,≥ 30
CC[C@H](C)[C@H](NC(=O)[C@H](CO)NC(=O)[C@H](Cc1ccc(O)cc1)NC(=O)[C@H](CC(=O)O)NC(=O)[C@H](CO)NC(=O)[C@@H](NC(=O)[C@H](Cc1ccccc1)NC(=O)[C@@H](NC(=O)CNC(=O)[C@H](CCC(=O)O)NC(=O)C(C)(C)NC(=O)[C@H](Cc1ccc(O)cc1)NC)[C@@H](C)O)[C@@H](C)CC)C(=O)N[C@@H](C)C(=O)N[C@@H](CC(C)C)C(=O)N[C@@H](CC(=O)O)C(=O)N[C@@H](CCCNC(=N)N)C(=O)N[C@@H](CCCCNC(=O)CNC(=O)CNC(=O)CNC(=O)CNC(=O)CNC(=O)CCCCCCCCCCCCCCCCC(=O)O)C(=O)N[C@@H](C)C(=O)N[C@@H](CCC(N)=O)C(=O)NC(C)(C)C(=O)N[C@@H](CC(=O)O)C(=O)N[C@@H](Cc1ccccc1)C(=O)N[C@H](C(=O)N[C@@H](CCC(=O)O)C(=O)N[C@@H](Cc1c[nH]c2ccccc12)C(=O)N[C@@H](CC(C)C)C(=O)N[C@@H](CC(C)C)C(=O)N[C@@H](C)C(=O)N[C@@H](CCC(N)=O)C(=O)N[C@@H](CCCNC(=N)N)C(=O)NCC(=O)O)C(C)C [Compound 115],40.7,40% (3 nmol/kg),≥ 15,≥ 30
CC[C@H](C)[C@H](NC(=O)[C@H](Cc1ccccc1)NC(=O)[C@@H](NC(=O)CNC(=O)[C@H](CCC(=O)O)NC(=O)C(C)(C)NC(=O)[C@@H](N)Cc1ccc(O)cc1)[C@@H](C)O)C(=O)N[C@@H](CO)C(=O)N[C@@H](CC(=O)O)C(=O)N[C@@H](Cc1ccc(O)cc1)C(=O)N[C@@H](CO)C(=O)N[C@H](C(=O)NC(C)(C)C(=O)N[C@@H](CCCCNC(=O)CNC(=O)CNC(=O)CNC(=O)CNC(=O)CNC(=O)CCCCCCCCCCCCCCCCC(=O)O)C(=O)N[C@@H](CC(=O)O)C(=O)N[C@@H](CCCNC(=N)N)C(=O)NC(C)(C)C(=O)N[C@@H](C)C(=O)N[C@@H](CCC(N)=O)C(=O)NC(C)(C)C(=O)N[C@@H](CC(=O)O)C(=O)N[C@@H](Cc1ccccc1)C(=O)N[C@H](C(=O)N[C@@H](CCC(=O)O)C(=O)N[C@@H](Cc1c[nH]c2ccccc12)C(=O)N[C@@H](CC(C)C)C(=O)N[C@@H](CC(C)C)C(=O)N[C@@H](C)C(=O)N[C@@H](CCC(N)=O)C(=O)N[C@@H](CCCNC(=N)N)C(=O)NCC(=O)O)C(C)C)[C@@H](C)CC [Compound 139],8.91,93% (3 nmol/kg),≥ 15,≥ 30
